# Results from patent US20200360311A1, “USE OF 3-METHYLMETHCATHINONE” (MIND MEDICINE, NC., priority 2017, published 2020).
# How the values were obtained:
# [1] = Case Study III: 3-MMC assisted therapy for relationship distress; assay type: in vivo, human; conditions: person, four 3-MMC assisted psychotherapy sessions, 300 milligrams orally
# Experimental: Single professional entered in to 3-MMC assisted therapy to understand why their relationships with men never lasted more than a few months. […] In this case the patient was assessed and prepared by the female therapist in two preliminary sessions where the patients relationship history was explored. The patient was encouraged to consider the connection between their experience of their parent's relationship when they were a child and their reaction to men they dated which was coloured by their past history. The location of the therapy was the living room of the therapist which had been prepared with inspirational art and wall hangings. The sound system consisted of headphones and an ipod with soothing/spiritual music. On the treatment days the patient was given 300 milligrams of 3-MMC orally. The treatment session started by the therapist guiding a meditation exercise and then the patient was encouraged to reflect internally by lying down with eyeshades and listening to the music. In this case the internal experience was 20 minutes after which the patient removed the eyeshades and turned off the music and proceeded to express intense emotions which related to their past anger at their parent. […]
# [2] = Case Study IV: 3-MMC-assisted psychotherapy for PTSD and Generalized Anxiety Disorder (GAD); assay type: in vivo, human; conditions: person, 200-400 mg twice weekly on two consecutive days for 8 weeks; from week 5 also EMDR with propanolol
# Source text: A person had been suffering from Post traumatic Stress Disorder (PTSD), depression, and General Anxiety Disorder (GAD).
# The symptoms they experienced were panic attacks, hyperventilation, pain in the chest, numbness, and tingling in the extremities, Irritable-Bowel Syndrome (IBS), nightmares, and insomnia.
# The PTSD had been caused by a particular life-threatening event, as well as other related incidences that had unfolded in their youth. The psychological ramifications of these events went undiagnosed for many years, although they were eventually treated for anxiety and depression. They refused however, to take the anti-depressants that their physician was willing to prescribe them, and only occasionally would take 5-10 mg Oxazepam for acute panic attacks.
# At the time that they started with the 3-MMC-assisted psychotherapy, they had been suffering from an occupational burnout for 4 months already cf. DC-10 Z-73.0.
# 3-MMC was administered twice weekly on two consecutive days at a dosage of 200-400 mg each time for a period of 8 weeks. Starting at week 5; 3-MMC-assisted psychotherapy took place once a week. Each session lasted 6.5-10 h with an average of 8.5 h per session. […]
# [3] = Human subject's perception of 3-MMC's effect after oral administration; assay type: in vivo; conditions: human subjects
# Experimental: The present inventors have observed that, in some embodiments the onset of human subject's perception of 3-MMC's effect is approximately 30-90 minutes following oral administration, varying according to whether the 3-MMC was administered to a fasting (more rapid onset), or following a meal (less rapid onset). In some cases, the perception of peak effect of 3-MMC in human subjects occurred between 10 to 30 minutes after the initial perception of onset of 3-MMC's effect. The present inventors further observed that the duration of perception of the effect of 3-MMC in human subjects was, in most cases, for no greater than 4 hours following oral administration.
# [4] = Case Study II: 3-MMC couple's therapy; assay type: in vivo, human; conditions: heterosexual couple, 6 sessions over 6 months, 150 milligrams each orally plus booster 100 milligrams 1 hour later
# Source text: Heterosexual couple married for 17 years were caught in a cycle of repetitive conflict over what they both agreed were trivial issues. They described intense, mutual emotional reactivity and angry outbursts which was problematic enough to begin to discuss divorcing. As a last attempt to resolve their conflicts they agreed to participate in once a month 3-MMC couple's therapy. […] In this case the therapy consisted of one therapist who assessed the couple and prepared for the 3-MMC sessions with 2 non-3MMC sessions where the couple was taught a specific communication technique (Non Violent Communication). The space was a normal therapist's office with comfortable furnishings, 3 chairs and an adjoining kitchen. The 3-MMC was given orally which a dosage of 150 milligrams each followed by a booster dosage of 100 milligrams given 1 hour after the first dosage. The couple alternated between periods of listening to relaxing music and conversation, where they explored their own perspectives on how to communicate in relationship both currently and historically. The counsellor would translate some of the couple's statements in the language of non-violent communication and encourage self responsibility. The end of the session occurred 5 hours after the booster dose and a light meal was prepared and served and the couple and therapist ate and debriefed the session. […]
# [5] = Case Study I: 3-MMC-assisted psychotherapy for post-traumatic stress disorder (PTSD); assay type: in vivo, human; conditions: person, three 3-MMC-assisted psychotherapy sessions, 200 milligrams orally
# Source text: Person suffering from PTSD who was previously incorrectly diagnosed with bipolar disorder, unable to work was under the care of a psychiatrist with no improvement in 4 years. […] In this case, the therapy consisted of both a male and female therapist in a room designed for this therapy (soft lighting, bed, attractive pillows, carefully chosen music, inspirational art—spiritual and nature). The patient was taught relaxation and breathing techniques and briefed in what to expect from the experience. In this case 200 milligrams of 3-MMC was given orally and the patient then lay down on the bed and listened to soothing music for 1.5 hours with eye shades on (internal experience). […] The therapists engaged in psychotherapy for 2 hours after which the patient once again lay down and put on the eyeshades for another 2 hours. Subsequently, the patient re-engaged with the therapists and explored their insights about how they could reframe the traumatic memory to be a positive learning experience.
# [6] = animal models, cited from earlier work
compound,measurement,setting,value
"CNC(C)C(=O)c1cccc(C)c1 (stereo not drawn) [3-MMC, 3-methylmethcathinone]",outcome of therapy for relationship distress,[1],understood their previously unconscious behaviour pattern
same,level of fear associated with traumatic memories,[2],led the level of associated fear to decrease with each subsequent session
same,onset of subject's perception of effect,"[3]; following oral administration, fasting more rapid, following a meal less rapid",30 to 90 min
same,duration of perception of the effect,"[3]; following oral administration, in most cases",≤ 4 h
same,perception of peak effect,"[3]; time after the initial perception of onset of effect, in some cases",10 to 30 min
same,outcome of couple's therapy,[4],able to take responsibility for their own problematic behaviour and negotiate a more functional relationship
same,clinical outcome of PTSD patient,[5],no longer diagnosable with either PTSD or bipolar and was able to return to gainful employment
same,time at which peak serum concentrations are apparent,[6]; after oral administration,5 to 10 min
same,apparent plasma half-life,[6]; after oral ingestion,approximately 0.8 hours
